From patent US10441537B2, “Unit doses, aerosols, kits, and methods for treating heart conditions by pulmonary administration” (InCarda Therapeutics, Inc., priority 2017, dated 2019)

What was measured:
in vivo = conditions: male, Yorkshire, pig, iv, 2 mg/kg
Procedure: The studies were carried out in male Yorkshire pigs (n=9) weighing 36±1.0 kg (mean±SEM). The pigs were pre-anesthetized with telazol (4.7 mg/kg, intramuscular) and subsequently further anesthetized using alpha-chloralose (80 mg/kg, IV bolus, followed by 24 mg/kg/h continuous IV infusion). The animals were intubated and ventilated at a constant rate of 12 breaths/min and tidal volume of 400 ml per stroke.
Simultaneous blood samples were drawn from the pigtail catheter positioned in the LV and from a catheter in the jugular vein.
The samples were centrifuged and frozen at −80° C. until drug level determination was performed using a bioanalytical assay method developed by Climax Laboratories, Inc.

[1] = test system: induced atrial fibrillation; test: Conversion of phenylephrine/burst-pacing-induced AF in anesthetized beagle dogs (Example 7); type: in vivo; conditions: for Time to NSR: IT
Procedure: The study was carried out in anesthetized healthy adult beagle dogs with induced AF. Acute AF was induced using the combination of phenylephrine ([…]), to increase heterogeneity of atrial refractory periods via increased loading and through a baroreceptor-mediated increase in parasympathetic efferent activity, and right atrial burst pacing (40-50 Hz for ˜15 min). The AF induced using this method was, in general, stable for more than 30 mins.
The cardiac rhythm was monitored prior to, during AF, and up to 10 min post-dosing and/or until conversion to NSR.

healthy volunteers [2] = test: Phase 1 study: auscultation, respiration rate, chest x-rays; type: in vivo, human
Procedure: Pulmonary safety was assessed by performing lung spirometry tests and measuring peripheral oxygen saturation (SpO2%) prior to dosing and at various times after completion of the inhalation. Lung spirometry tests evaluated all lung function parameters, including forced vital capacity (FVC), forced expiratory volume in 1 second (FEV1), peak expiratory flow (PEF), and forced expiratory flow at 25% and 75% intervals (FEF25-75). Auscultation and respiration rate were also measured prior to dosing and at various times after inhalation. Chest x-rays were performed on subjects before and after flecainide inhalation.

healthy volunteers [3] = conditions: in vivo, iv
Procedure: 3 cohorts of subjects, in total 34 healthy adult volunteers, were recruited for Part A study.
Part B was an open label non-randomized crossover in a cohort of 6 evaluable healthy adult volunteers.
In addition, the effects of changing posture from semi-recumbent to seated upright, vice-versa and during inhalation on HR and BP were assessed (Cohort 5).

[4] = test system: induced atrial fibrillation; test: Induced atrial fibrillation model in anesthetized dogs, intratracheal (IT) administration; type: in vivo
Procedure: Atrial Fibrillation Model: Anesthesia/Surgical Preparation: A venous catheter was placed in a peripheral vessel (i.e., cephalic) for administration of anesthetic. […] Following induction, animals were endotracheally intubated and mechanically ventilated (˜12 breaths/minute with a tidal volume of 200-300 mL). Subsequently, a cut-down on a jugular vein permitted introduction of a pacing lead into the right atrium. Transthoracic electrodes forming ECG lead II were placed. For test/vehicle article delivery, a 4F catheter was introduced through the trachea and wedged into a small airway, and a venous catheter was placed in a peripheral vessel (i.e., cephalic). […] Approximately 5 min after administration of this parasympathomimetic was started; the following experiments were performed: […] Observations were made for up to 10 minutes. […] Vehicle was only water.

[5] = test system: anesthetized Yorkshire pigs; test: PD responses (HR, MAP, ECG intervals) in anesthetized Yorkshire pigs, IV vs IT; type: in vivo
Procedure: All catheters were positioned under fluoroscopic guidance. […] Data are reported as means+ SEM. Statistical analyses were performed using the SAS system (9.4) to apply ANOVA with a post-hoc Dunnett's test. Statistical significance was assumed at p<0.05.

[6] = test system: induced atrial fibrillation; test: ACh and burst-pacing-induced AF duration in pigs (Example 5); type: in vivo; conditions: IT 1.5 mg/kg
Procedure: At one min after intrapericardial administration of ACh (1 ml of 100 mM), burst pacing was performed to initiate AF in the control cohort (FIG. 60). In the experimental cohort, after ACh and burst-pacing-induced AF, a stable period of 2 min of AF was allowed (FIG. 60). […] Table 12; FIG. 61).

[7] = before and after inhalation of 20, 30, 40 mg eTLD

## O=C(NCC1CCCCN1)c1cc(OCC(F)(F)F)ccc1OCC(F)(F)F (stereo not drawn) [flecainide, flecainide acetate]
In vivo; LV plasma level
  concentration at 30 min: 497 ± 190 ng/mL
In vivo; Venous plasma level
  concentration at 30 min: 519 ± 196 ng/mL
[1]; Animal 002, dose 0.75 (0.25 + 0.5) mg/kg
  Time to NSR: 52 s
[1]; Animal 003, dose 0.75 mg/kg
  Time to NSR: 12 s
[1]; Animal 004, dose 0.75 mg/kg
  Time to NSR: 23 s
[1]; Animal 005, dose 0.75 mg/kg
  Time to NSR: 62 s
[1]; Animal 006, dose 1.0 (0.75 + 0.25) mg/kg
  Time to NSR: 83 s
[1]; IV compared with IT administration
  effects in BP, VR and LV dP/dtmax upon conversion, IV vs IT: greater effects in BP, VR and LV dP/dtmax
Healthy volunteers [2]; Cohorts 1, 2, 3 and 5
  respiratory rate: minimal or no changes in respiratory rate
Healthy volunteers [2]; [7]
  Auscultation: normal in all subjects
  Chest x-rays: normal and showed no changes
  respiration rate: No changes in respiration rate
Healthy volunteers [3]
  decrease in systolic pressure: ≤ 18 mmHg
  maximal increase in HR: 7 bpm
  transient decrease in systolic pressure: 9 mmHg
Healthy volunteers [3]; 2 mg/kg
  HR: An increase in HR was observed
  systolic and diastolic BP: Decreases in systolic and diastolic BP were observed
[4]; 2 mg/kg body weight (FIG. 12)
  ECG trace: Afib conversion: Afib converting as soon as dosing occurred
[4]; 4 mg/kg body weight, intra-tracheal instillation (FIG. 11)
  ECG trace: Afib conversion: Afib converting into normal sinus rhythm
[4]; IT bolus
  conversion of Atrial Fibrillation to normal sinus rhythm: rapidly converted the Atrial Fibrillation to normal sinus rhythm
[4]; dog, in vivo
  cardiovascular effect when given by intratracheal instillation (summary): clear cardiovascular effect
[4]; large pulmonary doses
  ventricular rate: slower ventricular rates
[4]; pulmonary dose 2-4 mg/kg
  drop in mean arterial pressure: None to minimal drop in mean arterial pressure
[4]; pulmonary dose 2-4 mg/kg body weight
  conversion of induced atrial fibrillation to normal sinus rhythm: converted the induced atrial fibrillation to normal sinus rhythm
2.6 mg/mL
  pH of solution in water: 5.0
Distilled water, diltiazem hydrochloride 50 mg/ml, flecainide acetate 30 mg/ml
  appearance of solution: clear with no visible particulate matter
[5]; IT 0.75 mg/kg, baseline 111±3.6 mmHg, p=0.9112
  mean arterial pressure: not significantly altered
[5]; IT 0.75 mg/kg, baseline 111±6.4 bpm, p=0.9970
  heart rate: not significantly altered
[5]; IT 0.75 mg/kg, baseline 130±5.3 ms, p=0.9351
  PR interval: not significantly changed
[5]; IT 0.75 mg/kg, baseline 354±12.0 ms, p=0.7605
  JTc interval: not significantly changed
[5]; IT 0.75 mg/kg, baseline 435±12.9 ms, p=0.5505
  QTc interval: not significantly changed
[5]; IT 1.5 mg/kg, baseline 108±9.4 mmHg, p=0.9894
  mean arterial pressure: not significantly altered
[5]; IT 1.5 mg/kg, baseline 118±13.2 bpm, p=0.9999
  heart rate: not significantly altered
[5]; IT 1.5 mg/kg, baseline 127±2.3 ms, p=0.0819
  PR interval: not significantly changed
[5]; IT 1.5 mg/kg, baseline 364±11.5 ms, p=0.9968
  JTc interval: not significantly changed
[5]; IT 1.5 mg/kg, baseline 436±7.1 ms, p=0.1510
  QTc interval: not significantly changed
[5]; IV 2 mg/kg, baseline 103±1.9 bpm, ANOVA p=0.9936, 30 min
  heart rate: not significantly altered
[5]; IV 2 mg/kg, baseline 105±6.7 mmHg, p=0.8852
  mean arterial pressure: not significantly altered
[5]; IV 2 mg/kg, baseline 127±7.8 ms, p=0.5161
  PR interval: not significantly changed
[5]; IV 2 mg/kg, baseline 367±7.4 ms, p=0.9686
  JTc interval: not significantly changed
[5]; IV 2 mg/kg, baseline 442±7.9 ms, p=0.35
  QTc interval: not significantly changed
[6]; 30-min window of observation
  recurrence of AF after restoration of sinus rhythm: no recurrence of AF occurred
[6]; Pig 236 (No drug 10)
  AF duration: 4 min
[6]; Pig 238 (No drug 12)
  AF duration: 3 min
[6]; Pig 239 (No drug 12)
  AF duration: 3 min
